Test results from patent publication US20240368149A1, “ANALOGS OF XANOMELINE” (Terran Biosciences Inc., priority 2023, published 2024).
Where two headings read alike, the source gives them in different places.

Key:
[1] = Rat PK: plasma prodrug concentration after intramuscular (IM) dosing of xanomeline prodrugs at 5 mg/kg (Example A-4); format: in vivo, male Sprague-Dawley (SD) rats; details: male, Sprague-Dawley, IM 5 mg/kg of xanomeline; for Cmax / AUC(0-inf) / AUC(0-t): im; for AUC(0-inf): read-out: Prodrug AUCINF_obs; for AUC(0-t): read-out: Prodrug AUClast; for concentration at 0.5 h: 0.500 h
Method: (§1) • Step 1: A stock solution of the compound(s) were prepared to 1 mg/ml in DMSO • Step 2: A 10,000 ng/mL matched matrix standard was prepared using the stock solution(s) • Step 3: Calibration standards in matched matrix were prepared between 10,000 ng/ml and 0.5 ng/mL using serial dilution • Step 4: QC samples were prepared in matched matrix at 4000, 800, 400, 40 and 10 ng/mL
(§2) • Step 1: Add 10 μL of the standards, QCs and samples to a 96-well plate (extraction plate) • Step 2: To each standard, QC and test sample, add 100 μL of ISZ • Step 3: Sonicate for 2 min then mix the plate for approximately 2 min at 1200 rpm on a plate shaker • Step 4: Centrifuge the plate at 3000 rpm for 5 min • Step 5: Add 50 μL 0.1% formic acid in UP H2O to wells of a new 96-well plate • Step 6: Transfer 50 μL extracted sample to relevant position in second 96-well plate • Step 7: Mix at 1200 rpm for 2 min • Step 8: Heat seal and analyse on the LC-MS/MS system • Instrument: Xevo TQ-D with CTC Autosampler
(§3) Samples were sent for method optimization and measurement of prodrug via unique calibration lines and following acceptance QC's. Dose formulation concentrations were also measured, and PK parameters were determined (Cmax (ng/mL), Tmax (hr), Cl (ml/min/kg), Vdss (L/kg), t½ (hr), AUC0-t (ng/mL*hr), AUC0-inf (ng/mL*hr), MRT (hr), Bioavailability (% F) where warranted) using WinNon Lin software. Data (including bioanalytical results and assay performance) were reported in a tabulated format and QC'd.
Formulation for IM administration: All compounds were formulated as solutions or fine suspensions in saline at 12.5 mg API/mL. This provided doses of 5 mg/kg (equivalent of xanomeline) when given to a 250 g rat in a 100 μL dosing volume.
The pharmacokinetic properties of the synthesized xanomeline prodrugs after intramuscular administration in a rat model were assessed. The concentration of prodrug was measured in each rat at various sampling timepoints after intramuscular administration of the synthesized xanomeline prodrugs to rats.
Dose formulations were made at equivalent concentrations of active compound (xanomeline) adjusted for molecular weight of the compounds. The synthesized xanomeline prodrugs were dosed at 5 mg/kg intramuscular (IM) nominal dose. Nominal doses were used in PK parameter determinations.

[2] = Rat PK: plasma prodrug concentration after intravenous (IV) dosing of xanomeline prodrugs at 1 mg/kg (Example A-6); format: in vivo, male Sprague-Dawley (SD) rats; details: male, Sprague-Dawley, IV 1 mg/kg of xanomeline; for concentration at 0.25 h / concentration at 0.5 h / concentration at 0.75 h / Cmax / AUC(0-inf) / AUC(0-t): iv, 1 mg/kg; for concentration at 0.25 h: 0.250 h; for concentration at 0.25 h / concentration at 0.5 h / concentration at 0.75 h: read-out: Prodrug Plasma Concentrations Following Intravenous Dosing; for concentration at 0.5 h: 0.500 h; for concentration at 0.75 h: 0.750 h; for AUC(0-inf): read-out: Prodrug AUCINF_obs; for AUC(0-t): read-out: Prodrug AUClast
Method: as §1, §2, §3
Compound was dissolved in DMSO:HPCD (20% w/v in water) [10:90] 0.5 mg API/mL to provide doses of 1 mg/kg when administered IV in a 2 mL/kg dosing volume.
The pharmacokinetic properties of the synthesized xanomeline prodrugs after intravenous administration in a rat model were assessed. The concentration of prodrug was measured in each rat at various sampling timepoints after intravenous administration of the synthesized xanomeline prodrugs to rats.
Dose formulations were made at equivalent concentrations of active compound (xanomeline) adjusted for molecular weight of the compounds. The synthesized xanomeline prodrugs were dosed at 1 mg/kg intravenous (IV) nominal dose. Nominal doses were used in PK parameter determinations.

[3] = 5 mg/kg, analyte prodrug, individual animals
[4] = intramuscular, 5 mg/kg, Mean, read-out: Prodrug Plasma Concentrations Following Intramuscular Dosing
[5] = intramuscular, 5 mg/kg, individual animals, read-out: Prodrug Plasma Concentrations Following Intramuscular Dosing
[6] = analyte prodrug, individual animals

CCCCCCOc1nsnc1C1=CCC[N+](C)(C(C)OC(=O)C(C)(C)C)C1 (stereo not drawn) [Compound 19]
Tmax ([1]; analyte prodrug, Mean): 30 min | Cmax ([1]; 5 mg/kg, analyte prodrug, Mean): 218 ng/mL | AUC(0-inf) ([1]; 5 mg/kg, analyte prodrug, Mean): 697 ng·h/mL | AUC(0-t) ([1]; 5 mg/kg, analyte prodrug, Mean): 618 ng·h/mL | Cmax [1, 3]: 284 ng/mL | AUC(0-inf) [1, 3]: 891 ng·h/mL | AUC(0-t) [1, 3]: 667 ng·h/mL | concentration at 0.5 h [1, 4]: 218 ng/mL | concentration at 0.5 h [1, 5]: 284 ng/mL | concentration at 1 h [1, 4]: 128 ng/mL | concentration at 1 h [1, 5]: 115 ng/mL | concentration at 2 h [1, 4]: 83 ng/mL | concentration at 2 h [1, 5]: 80.2 ng/mL | concentration at 4 h [1, 4]: 35.9 ng/mL | concentration at 4 h [1, 5]: 38.6 ng/mL | concentration at 8 h ([1]; intramuscular, 5 mg/kg, 8.00 h, Mean, read-out: Prodrug Plasma Concentrations Following Intramuscular Dosing): 13.7 ng/mL | concentration at 24 h ([1]; intramuscular, 5 mg/kg, 24.0 h, Mean, read-out: Prodrug Plasma Concentrations Following Intramuscular Dosing): 1.59 ng/mL | concentration at 31 h [1, 4]: 1.04 ng/mL | concentration at 31 h [1, 5]: 1.01 ng/mL | concentration at 48 h [1, 4]: 0.666 ng/mL | concentration at 48 h [1, 5]: 0.775 ng/mL | concentration at 96 h [1, 4]: 0.255 ng/mL | concentration at 96 h [1, 5]: 0.764 ng/mL | Tmax [2, 6]: 15 min | concentration at 0.25 h ([2]; Mean): 27.2 ng/mL | concentration at 0.25 h ([2]; individual animals): 35.4 ng/mL | concentration at 0.5 h ([2]; Mean): 11.8 ng/mL | concentration at 0.5 h ([2]; individual animals): 15.2 ng/mL | concentration at 0.75 h ([2]; Mean): 7.1 ng/mL | concentration at 0.75 h ([2]; individual animals): 8.62 ng/mL | Cmax ([2]; analyte prodrug, Mean): 27.2 ng/mL | AUC(0-inf) ([2]; analyte prodrug, Mean): 22.9 ng·h/mL | AUC(0-t) ([2]; analyte prodrug, Mean): 17.8 ng·h/mL | Cmax [2, 6]: 35.4 ng/mL | AUC(0-inf) [2, 6]: 27.1 ng·h/mL | AUC(0-t) [2, 6]: 24 ng·h/mL
